In ChEMBL document CHEMBL3259521, “Design, synthesis, and SAR of embelin analogues as the inhibitors of PAI-1 (plasminogen activator inhibitor-1)” (Bioorg Med Chem Lett, 2014):
pIC50: −log10 of the molar value. Active and inactive are the calls of the source. No cut-off for these calls is given here.

Tests used:
[1] = Inhibition of hexa-His-tagged PAI-1 N152H/K156T/Q321L/M356I mutant (unknown origin) expressed in Escherichia coli BL21(DE3) after 10 mins by uPA-based assay; parameters: species or system Homo sapiens
Homo sapiens [2] = species: Homo sapiens; assay: Inhibition of hexa-His-tagged PAI-1 N152H/K156T/Q321L/M356I mutant (unknown origin) expressed in Escherichia coli BL21(DE3) at 100 uM after 10 mins by uPA-based assay
Homo sapiens [3] = species: Homo sapiens; assay: Ratio of embelin IC50 to compound IC50 for hexa-His-tagged PAI-1 N152H/K156T/Q321L/M356I mutant (unknown origin) expressed in Escherichia coli BL21(DE3)

Row | pIC50 [1] | inhibition (Homo sapiens [2]) | Ratio IC50 (Homo sapiens [3]) | Structure (SMILES)
1 | 5.31 |  |  | CCCCCCCCCCCC1=C(O)C(=O)C=C(O)C1=O [EMBELIN]
2 | 5.38 |  |  | CCCCCCC1=C(O)C(=O)C=C(O)C1=O
3 |  | inactive |  | CCCCCCCCCCCC1=C(OC)C(=O)C=C(OC)C1=O
4 | 6.02 |  | 5 | CCCCCCCCCC1=C(O)C(=O)C(CCCCCCC)=C(O)C1=O
5 | 6.20 |  | 8 | CCCCCCCCCC1=C(O)C(=O)C(CCCCC)=C(O)C1=O
6 | 6.12 |  | 6.5 | C=CCC1=C(O)C(=O)C(CCCCCCCCC)=C(O)C1=O
7 | 4.04 |  |  | CCCCCCCCCCCC1=C(O)C(=O)C=C(OC)C1=O [5-O-METHYLEMBELIN]
8 | 5.25 |  |  | CCCC1=C(O)C(=O)C(CCC)=C(O)C1=O
9 | 6.04 |  | 5 | CCCCCC1=C(O)C(=O)C(CCCCC)=C(O)C1=O
10 | 6.24 |  | 9 | CCCCCCC1=C(O)C(=O)C(CCCCCC)=C(O)C1=O

Continued, compound first:

Row | Structure (SMILES) | pIC50 [1] | inhibition (Homo sapiens [2]) | Ratio IC50 (Homo sapiens [3])
11 | CCCCC1=C(O)C(=O)C(CCCC)=C(O)C1=O | 5.15 |  | 
12 | CCCCCCCC1=C(O)C(=O)C(CCCCCCC)=C(O)C1=O | 6.29 |  | 10
13 | CCCCCCCCC1=C(O)C(=O)C(CCCCCCCC)=C(O)C1=O | 6.05 |  | 5
14 | CCCCCCCCCC1=C(O)C(=O)C(Cc2ccccc2)=C(O)C1=O | 6.11 |  | 6.5
15 | CCCCCCCC1=C(O)C(=O)C=C(O)C1=O | 5.41 |  | 
16 | CCCCCCCCCC1=C(O)C(=O)C(CCC)=C(O)C1=O | 6.42 |  | 13
17 | CCCCCCCCCC1=C(O)C(=O)C=C(O)C1=O | 5.75 |  | 
18 | CCCCCCCCCC1=C(O)C(=O)C(CCCC)=C(O)C1=O | 6.74 |  | 27
19 | CCCCCC1=C(O)C(=O)C=C(O)C1=O | 5.34 |  | 
20 | CCCCCCCCC1=C(O)C(=O)C=C(O)C1=O | 5.73 |  | 
